Literature values, collected in US20170261495A1, “MODEL SYSTEMS FOR SCREENING MODULATORS OF mTOR SIGNALING” (SHRINERS HOSPITALS FOR CHILDREN, priority 2015, published 2017).

Details: clinical trials

In the case of `CO[C@H]1C[C@@H]2CC[C@@H](C)[C@@](O)(O2)C(=O)C(=O)N2CCCC[C@H]2C(=O)O[C@H]([C@H](C)C[C@@H]2CC[C@@H](OCCO)[C@H](OC)C2)CC(=O)[C@H](C)/C=C(\C)[C@@H](O)[C@@H](OC)C(=O)[C@H](C)C[C@H](C)/C=C/C=C/C=C/1C` [everolimus], the effects on epilepsy (TSC) is given as “minimal” and the “size of renal and brain tumors” value (TSC (Krueger et al., 2010)) is given as “clear reduction”.
